Consider one compound from patent US20230218639A1, “USE OF OXYGENATED CHOLESTEROL SULFATES FOR TREATING NEUROLOGICAL CONDITIONS, NEURODEGENERATIVE DISEASES, AND ADDICTION” (Durect Corporation, priority 2020, published 2023).

In one data set the test system is Huh-7 cells. The experiment in a line: Real-time RT-PCR gene expression. The format is cell-based, human. The following applies: Huh-7, HG 72 hours; 25HC3S 6.25-50 μM, 1-8 hours. On the procedure: FIGS. 3A-3D. Expression of key genes related to signaling pathways. […] Key Genes and their targeting genes expression were determined by RT-PCR analysis. […] Each sample, 2 μg, was sent to […], Inc. (Hopkinton, Mass.) for analysis of global methylation bisulfite sequencing. The same samples, 6 μg, were sent to Novogene Co., Ltd (Tianjin, China) for analysis of whole genome bisulfite sequencing (WGBS). Total RNA was isolated using the Promega SV total RNA isolation system (Madison, Wis.) with DNase treatment. […] Real-time RT-PCR was performed using SYBR Green as the indicator on ABI 7500 Fast Real-Time PCR System (Applied Biosystems, Foster City, Calif.). Amplifications of β-actin or GAPDH were used as internal controls. Relative messenger RNA (mRNA) expression was quantified with the comparative cycle threshold (Ct) method using the primer set shown in Table 1.1 and was expressed as 2^-ΔΔCt.
A general note: Real-time PCR tracks product formation cycle by cycle.

On the set-up of data set [1]: species or system rats. To be noted: Sprague Dawley, rat, in vivo, po, 75 mg/kg.
For data set [2] the following is noted: rat, in vivo, po, 75 mg/kg. As for the experimental part:
Plasma concentrations were similar to those determined in the pharmacokinetics phase and were above the lower limit of quantitation.
Pancreas and liver concentrations ranged from 23,500 ng equiv./g to 28,100 ng equiv./g. Uveal tract and brain concentrations were lowest relative to the other tissues and were approximately 1000 ng equiv./g. Skin, thymus, prostate, and pituitary tissue concentrations were <3000 ng equiv./g. Remaining tissues had concentrations between 3600 ng-equiv./g and 10,700 ng equiv./g. […] As calculated using AUClast, the tissue:plasma ratios were highest for the small intestine (wall, 15.4) followed by the liver and adrenal gland at 6.96 and 6.64, respectively. High liver and small intestine concentrations are consistent with oral administration and biliary (fecal) excretion.

A short description of data set [3]: Plasma pharmacokinetics, single intravenous dose. Format: in vivo, Sprague Dawley rats. The following applies: single intravenous (bolus) dose 10 mg/kg. On the procedure:
(§1) Nine male Sprague Dawley rats (Group 1) were designated for the pharmacokinetic phase, 3 male Sprague Dawley rats (Group 2) for the excretion mass balance phase, and 7 male Sprague Dawley rats (Group 3) and 9 male Long Evans rats (Group 4) for the tissue distribution phase. All animals received a single intravenous dose of [^14C]-25HC3S at 10 mg/kg and a target radioactivity of 225 μCi/kg. Blood samples were collected from all Group 1 animals at approximately 0.083, 0.25, 0.5, 1, 2, 4, 8, 12, 24, 48, and 72 hours post-dose. Urine and feces were collected from all Group 2 animals periodically through 168 hours post-dose. […] Following blood collection, animals were euthanized by CO2 inhalation and carcasses frozen in a dry ice/hexane bath for processing by quantitative whole body autoradiography. Whole blood, plasma, urine, feces, cage rinse, and cage wash were analyzed for total radioactivity by liquid scintillation counting.

In the next data set the target is DNMT3b (Homo sapiens, UniProt Q9UBC3). The experiment in a line: DNMT3b activity assay (Lambda DNA substrate, ^3H-SAM). Format: biochemical. The following applies: read-out: IC50, DNMT3b activity.
A short description of data set [4]: Excretion mass balance, single intravenous dose. The format is in vivo, Sprague Dawley rats. To be noted: intravenous 10 mg/kg, over 168 hours. As for the experimental part:
as §1

As a reminder, the IC50 is the concentration that inhibits the measured activity by half.

Where two headings read alike, the source gives them in different places. Bounds are passed on as bounds.

Method for DNMT3b: For the DNMT1 activity assay, the substrate solution, 0.001 mg/ml Poly(dI-dC):Poly(dI-dC) in 50 mM Tris-HCl, pH 7.5, 50 mM NaCl, 5 mM EDTA, 5 mM DTT, 1 mM PMSF, 5% glycerol, 0.01% Brij35, 1% DMSO was used. For the DNMT3a/3b activity assay, 0.0075 mg/ml Lambda DNA in 50 mM Tris-HCl, pH 7.5, 50 mM NaCl, 5 mM EDTA, 5 mM DTT, 1 mM PMSF, 5% glycerol, 1% DMSO, was used. The indicated DNMT1, DNMT3a, or DNMT3b was added to the appropriate substrate solution and gently mixed. […] The mixtures were first incubated for 15 min, then ^3H-SAM was added to the reaction mixture to initiate the reaction, and the mixture was incubated for 60 min at 30° C. Following incubation, the reaction mixture was finally transferred to filter-paper for detection of radioactivity counts.

With `C[C@H](CCCC(C)(C)O)[C@H]1CC[C@H]2[C@@H]3CC=C4C[C@@H](OS(=O)(=O)O)CC[C@]4(C)[C@H]3CC[C@]12C` [25HC3S, 5-Cholesten-3β, 25-diol 3-sulfate], in the data set on Huh-7 cells, the “decreased expression of FAS” value is on record as roughly 90%, the “decreased expression of HMGR” value is roughly 90%, the “increased expression of CREB5” value is given as “up to 20 fold” and the “increased expression of DUSP8” value is 5 fold. For the same compound, the “increased expression of PGC1A” value with Huh-7 cells came out at 12 fold. In data set [1], the “dose recovered in urine, feces, and cage rinse” value was “approximately 94.5%”; the “recovered radioactivity in feces” value is 94.2%. In data set [2], the “Cmax in small intestine (wall)” value is on record as 424,000 ng equiv./g, the “Cmax in stomach (wall)” value is listed as 204,000 ng equiv./g, the “tissue Tmax” value is listed as no more than 6 hours post-dose and the “tissues in which radioactivity was detected” value is listed as “all tissues except the eye (lens)”. Further, in data set [2], the “whole blood AUClast” value was 127,000 h ng equiv./g and the “whole blood Cmax” value turned out to be 2850 ng equiv/g. In addition, the “plasma AUClast” value in data set [3] is 27,900 h*ng-equiv./g. Also, the “terminal elimination phase T1/2, plasma” value in data set [3] (PK phase) worked out at 26.6 h. Besides, at DNMT3b, the IC50 amounted to 9.05 µM. Further, in data set [4], the “dose recovered in urine, feces, and cage rinse” value is listed as “approximately 100.2%”; the “recovered radioactivity in feces” value was 83.0%.
